Structures are written as SMILES.

Usually melting point stands for the temperature, or range, at which the solid turns liquid.

A short description of data set [1]: logP determination by reversed-phase HPLC (EEC Directive 79/831 Annex V.A8), acidic range. It is filed as physicochemical. The conditions noted are these: for chromatographic logP: pH 2, HPLC, C18 reversed-phase column, read-out: logP (pH 2). On the procedure: The logP values given in the table were determined in accordance with EEC Directive 79/831 Annex V.A8 by HPLC (High Performance Liquid Chromatography) using a reversed-phase column (C 18). Temperature: 43° C.
(a) Mobile phases for the determination in the acidic range: 0.1% phosphoric acid, acetonitrile; linear gradient from 10% acetonitrile to 90% acetonitrile—the corresponding measurement results in Table 1 are marked a).
Calibration was carried out using unbranched alkan-2-ones (having 3 to 16 carbon atoms) with known logP values (determination of the logP values by the retention times using linear interpolation between two successive alkanones).

For data set [2], the system named is weeds. The data set can be described thus: Post-emergence test (herbicidal action). Type of data set: in vivo. The conditions noted are these: test plants of 5-15 cm sprayed, rated after three weeks. The method, then: Post-Emergence Test (Herbicidal Action)
(§1) To produce a suitable preparation of active compound, 1 part by weight of active compound is mixed with the stated amount of solvent, the stated amount of emulsifier is added and the concentrate is diluted with water to the desired concentration.
Test plants of a height of 5-15 cm are sprayed with the preparation of active compound such that the particular amounts of active compound desired are applied per unit area. The concentration of the spray liquor is chosen such that the particular amounts of active compound desired are applied in 1000 l of water/ha.
(§2) After three weeks, the degree of damage to the plants is rated in % damage in comparison to the development of the untreated control.

For another data set, the system named is Meloidogyne incognita. Description: Meloidogyne test (nematicidal action). Type of data set: in vivo. The conditions noted are these: Meloidogyne incognita egg/larvae suspension, lettuce in sand. On the procedure:
Meloidogyne Test (Nematicidal Action)
To produce a suitable preparation of active compound, 1 part by weight of active compound is mixed with the stated amounts of solvent and emulsifier, and the concentrate is diluted with water to the desired concentration.
Vessels are filled with sand, solution of active compound, Meloidogyne incognita egg/larvae suspension and lettuce seeds. The lettuce seeds germinate and the plants develop. On the roots, galls are formed.
After the desired period of time, the nematicidal action is determined in % by the formation of galls. 100% means that no galls have been found; 0% means that the number of galls on treated plants corresponds to that of the untreated control.

Data set [3] concerns weeds. The data set can be described thus: Pre-emergence test (herbicidal action). Type of data set: in vivo. The conditions noted are these: soil sprayed 24 hours after sowing, rated after three weeks. On the procedure:
Pre-Emergence Test (Herbicidal Action)
as §1
Seeds of the test plants are sown in normal soil. After 24 hours, the soil is sprayed with the preparation of active compound such that the particular amount of active compound desired is applied per unit area. The concentration of active compound in the spray liquor is chosen such that the particular amount of active compound desired is applied in 1000 litres of water per hectare.
as §2

Consider `Cn1cnc2c(cnn2-c2ncc(C(F)(F)F)cc2Cl)c1=O` [Example 2, 1-(3-chloro-5-trifluoromethylpyridin-2-yl)-5-methyl-1,5-dihydropyrazolo[3,4-d]pyrimidin-4-one], for which the melting point came to 253 °C. Moreover, the chromatographic logP in data set [1] stood at 1.76.
The compound `Cc1nc2c(cnn2-c2c(Cl)cc(C(F)(F)F)cc2Cl)c(=O)[nH]1` [Example 3, 1-(2,6-dichloro-4-trifluoromethylphenyl)-6-methyl-1,5-dihydropyrazolo[3,4-d]pyrimidin-4-one] displayed a melting point of 300 °C. Moreover, in data set [1], the chromatographic logP amounted to 2.25.
In turn, `Cc1nc2c(cnn2-c2c(Cl)cc(C(F)(F)F)cc2Cl)c(=O)n1C` [Example 4, 1-(2,6-dichloro-4-trifluoromethylphenyl)-5,6-dimethyl-1,5-dihydropyrazolo[3,4-d]pyrimidin-4-one] gave a melting point of 195 °C. Further, the chromatographic logP in data set [1] came out at 2.69.
In turn, `O=c1[nH]c(C2CC2)nc2c1cnn2-c1ncc(C(F)(F)F)cc1Cl` [Example 5, 1-(3-chloro-5-trifluoromethylpyridin-2-yl)-6-cyclopropyl-1,5-dihydropyrazolo[3,4-d]pyrimidin-4-one] gave a melting point of 239 °C. In data set [1], the chromatographic logP was 2.19.
`O=c1[nH]c(C2(F)CC2)nc2c1cnn2-c1ncc(C(F)(F)F)cc1Cl` [Example 6, 6-(1-fluorocyclopropyl)-1-(3-chloro-5-trifluoromethylpyridin-2-yl)-1,5-dihydropyrazolo[3,4-d]pyrimidin-4-one]: the melting point was found to be 211 °C. In data set [1], the chromatographic logP is 2.29. Moreover, the “herbicidal action against weeds (degree of damage)” value (shortened to “herbicidal action against weeds”) in the data set with weeds [2] is on record as “strong action against weeds”.
In the case of `CCc1nc2c(cnn2-c2ncc(C(F)(F)F)cc2Cl)c(=O)n1C` [Example 16], in data set [1], the “logP a) (Table 1, Physical data)” value is recorded as “(I) logP = 2.46^a)”. In addition, the “nematicidal action (formation of galls)” value in the data set on Meloidogyne incognita was “good activity”. Moreover, the “herbicidal action against weeds” value with weeds [2] and in the data set on weeds [3] was “strong action against weeds” throughout.
Turning to `Cn1c(C2CC2)nc2c(cnn2-c2ncc(Cl)cc2Cl)c1=O` [Example 80], the “logP a) (Table 1, Physical data)” value in data set [1] was “(I) logP = 2.30^a)”. Besides, the “nematicidal action (formation of galls)” value in the data set on Meloidogyne incognita is recorded as “good activity”. In addition, the “herbicidal action against weeds” value in the data set with weeds [2] and in the data set with weeds [3] was “strong action against weeds” in each case.
On to `NC(=O)c1cnn(-c2ncc(C(F)(F)F)cc2Cl)c1N` [II-1, 5-amino-1-(3-chloro-5-trifluoromethylpyridin-2-yl)pyrazole-4-carboxamide], for which the melting point amounted to 196 °C. In addition, in data set [1], the chromatographic logP was 1.46.
Take `NC(=O)c1cnn(-c2ncc(C(F)(F)F)cc2Cl)c1NC(=O)C1(F)CC1` [VI-1, 5-(1-fluorocyclopropylcarbonylamino)-1-(3-chloro-5-trifluoromethylpyridin-2-yl)pyrazole-4-carboxamide]: the melting point is 204 °C. Moreover, the chromatographic logP in data set [1] turned out to be 2.02.
